Experimental findings from ChEMBL document CHEMBL2163337, “Trigohowilols A-G, degraded diterpenoids from the stems of Trigonostemon howii” (J Nat Prod, 2012) are described below.

One assay concerns SMMC-7721. Nature of the assay: Cytotoxicity against human SMMC7721 cells by MTT assay. In kind it is functional, cell-based.
A further assay deals with SW480. Nature of the assay: Cytotoxicity against human SW480 cells by MTT assay. The assay is classed as functional, cell-based. (In general: Tetrazolium dyes change colour on reduction, which living cells bring about.)
The test system of assay [1] is Staphylococcus aureus. Nature of the assay: Antibacterial activity against Staphylococcus aureus ATCC 25923 by two-fold dilution method. In kind it is functional.
For assay [2], the system named is Staphylococcus aureus. Nature of the assay: Antibacterial activity against methicillin-resistant Staphylococcus aureus clinical isolate 92 by two-fold dilution method. The assay is classed as functional.
Another assay relates to MCF7. Nature of the assay: Cytotoxicity against human MCF7 cells by MTT assay. In kind it is functional, cell-based.
The next assay relates to Pseudomonas aeruginosa. Nature of the assay: Antibacterial activity against Pseudomonas aeruginosa ATCC 27853 by two-fold dilution method. The assay is classed as functional.
For assay [3], the system named is Staphylococcus aureus. Nature of the assay: Antibacterial activity against methicillin-resistant Staphylococcus aureus clinical isolate 98 by two-fold dilution method. In kind it is functional.
For a further assay, the system named is A549. Nature of the assay: Cytotoxicity against human A549 cells by MTT assay. In kind it is functional, cell-based.
The subject of the next assay is HL-60. Nature of the assay: Cytotoxicity against human HL60 cells by MTT assay. The assay is classed as functional, cell-based.

In brackets after ≈: the same amount, converted by molar mass.

Take `COc1cc2c3c(cc(O)c2cc1C)C(C)(C)C(=O)C=C3` [TRIGOHOWILOL A]: the half-inhibitory concentration (IC50) – broadly, the concentration needed to halve the response being measured – in the assay with SMMC-7721 was over 40 µM; in the assay with SW480 it was over 40 µM; with MCF7 it was over 40 µM; in the assay with A549 it was 35.6 µM; in the assay on HL-60, 24.8 µM. Also, the MIC with Staphylococcus aureus [1], against Staphylococcus aureus [2], in the assay with Pseudomonas aeruginosa and in the assay with Staphylococcus aureus [3] was 25 µg/mL (≈ 88.5 µM) each time.
Consider `Cc1cc2ccc3c(c2cc1O)C=C(O)C(=O)C3(C)C` [TRIGOHOWILOL B], for which the concentration for half-maximal inhibition (IC50) in the assay with SMMC-7721, in the assay on SW480, in the assay on MCF7, in the assay with A549 and in the assay on HL-60 was over 40 µM each time. Also, the MIC (in general, the smallest concentration in the dilution series that meets the test's criterion for growth inhibition) with Staphylococcus aureus [1] was 25 µg/mL (≈ 93.2 µM); with Staphylococcus aureus [2] it was 50 µg/mL (≈ 186 µM); in the assay on Pseudomonas aeruginosa it was 25 µg/mL (≈ 93.2 µM); against Staphylococcus aureus [3] it was 50 µg/mL (≈ 186 µM).
Turning to `Cc1cc2c(cc1O)C1=C(C3=Cc4c(cc(O)c5cc(C)c(O)cc45)C(C)(C)C3=O)C(=O)C(C)(C)C1=CC2=O` [TRIGOHOWILOL C], the 50% inhibitory concentration (IC50) in the assay with SMMC-7721, in the assay with SW480, with MCF7, with A549 and in the assay with HL-60 was over 40 µM throughout. Further, the minimal inhibitory concentration (MIC) with Staphylococcus aureus [1], in the assay with Staphylococcus aureus [2], against Pseudomonas aeruginosa and against Staphylococcus aureus [3] was 25 µg/mL (≈ 48 µM) each time.
For `COc1cc2c3c(cc(O)c2cc1C)C(C)(C)C(=O)C(C1=C2C(=CC(=O)c4cc(C)c(O)cc42)C(C)(C)C1=O)=C3` [TRIGOHOWILOL D], the half-inhibitory concentration (IC50) in the assay on SMMC-7721 was over 40 µM; in the assay with SW480, over 40 µM; in the assay with MCF7, over 40 µM; with A549, over 40 µM; in the assay on HL-60 it was 24.3 µM. For the same compound, the MIC against Staphylococcus aureus [1] is 12.5 µg/mL (≈ 23.4 µM); against Staphylococcus aureus [2] it was 12.5 µg/mL (≈ 23.4 µM); in the assay on Pseudomonas aeruginosa, 25 µg/mL (≈ 46.8 µM); against Staphylococcus aureus [3] it was 12.5 µg/mL (≈ 23.4 µM).
In the case of `COc1cc2c(cc1C)C(=O)C=C1C2=C(C2=Cc3c(cc(O)c4cc(C)c(O)cc34)C(C)(C)C2=O)C(=O)C1(C)C` [TRIGOHOWILOL E], the 50% inhibitory concentration (IC50) in the assay with SMMC-7721 was 3.25 µM; in the assay with SW480, 9.42 µM; in the assay on MCF7, 12.6 µM; in the assay with A549, 9.69 µM; in the assay with HL-60, 2.61 µM. For the same compound, the minimal inhibitory concentration (MIC) amounted to 6.25 µg/mL (≈ 11.7 µM) in the assay with Staphylococcus aureus [1], 25 µg/mL (≈ 46.8 µM) against Staphylococcus aureus [2], 50 µg/mL (≈ 93.5 µM) in the assay on Pseudomonas aeruginosa and 12.5 µg/mL (≈ 23.4 µM) against Staphylococcus aureus [3].
Take `COc1cc2c(cc1C)C(=O)C=C1C2=C(C2=Cc3c(cc(O)c4cc(C)c(OC)cc34)C(C)(C)C2=O)C(=O)C1(C)C` [TRIGOHOWILOL F]: the IC50 in the assay with SMMC-7721 was determined as 2.33 µM; in the assay with SW480 it was 3.56 µM; in the assay on MCF7 it was 4.2 µM; with A549 it was 3.64 µM; in the assay with HL-60, 2.49 µM. In addition, the MIC came to 12.5 µg/mL (≈ 22.8 µM) against Staphylococcus aureus [1], 12.5 µg/mL (≈ 22.8 µM) against Staphylococcus aureus [2], 25 µg/mL (≈ 45.6 µM) with Pseudomonas aeruginosa and 12.5 µg/mL (≈ 22.8 µM) with Staphylococcus aureus [3].
On to `COc1cc2c(cc1C)C(=O)C=C1C2=C(C2=C3C(=CC(=O)c4cc(C)c(OC)cc43)C(C)(C)C2=O)C(=O)C1(C)C` [TRIGOHOWILOL G], for which the IC50 in the assay on SMMC-7721 was found to be 2.78 µM; in the assay with SW480, 8.39 µM; in the assay with MCF7, 15.5 µM; in the assay on A549, 5.35 µM; in the assay with HL-60, 17.8 µM. The minimum inhibitory concentration (MIC) with Staphylococcus aureus [1], in the assay with Staphylococcus aureus [2], against Pseudomonas aeruginosa and in the assay on Staphylococcus aureus [3] was over 50 µg/mL throughout.
As to `CN[C@H](CC(C)C)C(=O)N[C@H]1C(=O)N[C@@H](CC(N)=O)C(=O)N[C@H]2C(=O)N[C@H]3C(=O)N[C@H](C(=O)N[C@H](C(=O)O)c4cc(O)cc(O)c4-c4cc3ccc4O)[C@H](O)c3ccc(c(Cl)c3)Oc3cc2cc(c3O[C@@H]2O[C@H](CO)[C@@H](O)[C@H](O)[C@H]2O[C@H]2C[C@](C)(N)[C@H](O)[C@H](C)O2)Oc2ccc(cc2Cl)[C@H]1O.Cl` [VANCOMYCIN HYDROCHLORIDE], the minimum inhibitory concentration (MIC) with Staphylococcus aureus [1], in the assay on Staphylococcus aureus [2], against Pseudomonas aeruginosa and against Staphylococcus aureus [3] was 0.78 µg/mL in each case.
